Read-outs that look alike come from different tables or passages of the source.
Columns and labels:
[1] = LogP by HPLC on reversed phase columns (EEC directive 79/831 Annex V.A8); assay type: physicochemical; details: reversed phase HPLC columns
Method in brief: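 LogP derived from retention time, interpolated linearly between bracketing alkan-2-one standards (3 to 16 carbons). Where several values exist for one method, all are listed with "+"; UV spectra 200–400 nm at peak maxima gave lambda-max.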

[2] = test system: salicylate responsive promoter sequence of the PR1 (pathogenesis-related protein I) gene (AT2G14610); assay: Induction of defense gene expression in Arabidopsis thaliana (PR1 promoter-GFP reporter plants); assay type: in vivo; details: 72 h, 3rd day after spraying, mock treated leaves set as 1.00, read-out: relative fluorescence value
Method in brief: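 Transgenic A. thaliana carrying GFP under the salicylate-responsive PR1 promoter, grown five days, then sprayed with compounds. Whole-plant fluorescence imaged and quantified on day 3 post-spray, expressed relative to mock-treated leaf background set at 1.00.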

[3] = test system: Pseudomonas syringae pv. tomato; assay: In vivo preventive test on Pseudomonas syringae pv. tomato (bacterial speck on tomato); details: sprayed 72 hours before inoculation, evaluated 5 or 6 days after inoculation, read-out: efficacy; for pest or weed control at 31 ppm: 31 ppm of active ingredient; for pest or weed control at 125 ppm: 125 ppm of active ingredient; for pest or weed control at 500 ppm: 500 ppm of active ingredient
Protocol: The tested active ingredients were prepared by homogenization in a mixture of acetone/Dimethyl sulfoxide/Tween®, and then diluted with water to obtain the desired active material concentration.
The young plants of tomato were treated by spraying the active ingredient prepared as described above. Control plants were treated only with an aqueous solution of acetone/Dimethyl sulfoxide/Tween®.
After 72 hours, the plants were contaminated by spraying the leaves with an aqueous bacteria suspension of Pseudomonas syringae pv. tomato. The contaminated tomato plants were incubated for 4 days in saturated atmosphere at 22° C. day/20° C. night−70% HR and then for 1 or 2 days at 22° C. day/20° C. night at 70-80% relative humidity.
The test was evaluated 5 or 6 days after the inoculation. 0% means an efficacy which corresponds to that of the control plants while an efficacy of 100% means that no disease was observed.

[4] = preparation examples, method not indicated, read-out: Log P

chromatographic logP ([1]; method [a]) | chromatographic logP [1, 4] | SMILES | fold induction at 75 ppm [2] | fold induction at 300 ppm [2] | pest or weed control at 31 ppm [3] | pest or weed control at 125 ppm [3] | pest or weed control at 500 ppm [3]
3.08 |  | COC(=O)CC[C@H](NC(=O)c1sc(Cl)c(Cl)c1C)C(=O)OC [I.122] | > 2 | > 2 | 70 to 79% | 80 to 89% | 80 to 89%
2.59 |  | Cc1c(C(=O)NC(C(=O)O)C2CC2)sc(Cl)c1Cl (centres unmarked) [I.095] | > 2 | > 2 |  | 70 to 79% | 80 to 89%
3.67 |  | CCOC(=O)C1(NC(=O)c2sc(Cl)c(Cl)c2C)CCC1 [I.047] |  | > 2 | 70 to 79% | 90 to 100% | 
 | 3.31 | COC(=O)C(NC(=O)c1sc(Cl)c(Cl)c1C)C1CC1 (centres unmarked) [I.081, methyl cyclopropyl{[(4,5-dichloro-3-methyl-2-thienyl)carbonyl]amino}acetate] | > 2 | > 2 |  | 70 to 79% | 
3.41 |  | COC(=O)C(NC(=O)c1sc(Br)c(Br)c1C)C1CC1 (centres unmarked) [I.032] | > 2 | > 2 |  |  | 70 to 79%
3.22 |  | CCOC(=O)C(C#N)NC(=O)c1sc(Br)c(Br)c1C (centres unmarked) [I.077] | > 2 | > 2 |  |  | 80 to 89%
2.84 |  | Cc1c(C(=S)NC2(C(=O)O)CC2)sc(Cl)c1Cl [I.060] | > 2 | > 2 |  |  | 70 to 79%
 | 2.67 | Cc1c(C(=O)NC(C(=O)O)C2CC2)sc(Br)c1Br (centres unmarked) [I.080, cyclopropyl{[(4,5-dibromo-3-methyl-2-thienyl)carbonyl]amino}acetic acid] | > 2 | > 2 |  |  | 70 to 79%
